In EP0330052B1, “Use of benzimidazoles for preparing a medicine with an anti-ischemial activity on the heart, and combinations with betablockers or bradycardics” (Dr. Karl Thomae GmbH, priority 1988, dated 1989):

Legend:
[1] = test system: Kaninchen; experiment: Influence on infarct size in an ischaemia/reperfusion model (60 min coronary ligation, 30 min reperfusion); assay type: in vivo; details: i.v. 10 min before occlusion
Experimental: 1. Beeinflussung der Infarktgröße an einem Ischämie/Reperfusionsmodell
Kaninchen (Russen beiderlei Geschlechts, Körpergewicht 2-2,5 kg) werden mit einem Bolus (40-60 mg/kg i.p.) und nachfolgender Dauerinfusion (10 |g/kg/h) Pentobarbital narkotisiert. Die Körpertemperatur wird bei 38°C gehalten. Nach endotrachealer Intubation werden die Tiere druckkonstant mit einer Mischung aus 50 % O₂ und 50 % N₂ beatmet. Die Kontrolle der Blutgase und des Blut pH erfolgt mit einem Blutgasanalyzer (ABL-2, Radiometer). Zur Messung des linksventrikulären Druckes wurde ein Druckwandler über die A-carotis in die linke Herzkammer geschoben. Der Aortendruck wird über einen via A. femoralis eingeführten Katheter erfaßt. Nach Eröffnung des Thorax im 5. linken Interkostalraum wird die linke absteigende Koronararterie für 60 Minuten ligiert und danach die Koronararterie wieder eröffnet. Nach 30minütiger Reperfusion wird die Arterie an derselben Stelle wieder verschlossen und das normal perfundierte Myokard mit Patentblau (in den linken Vorhof injiziert) angefärbt. Das Herz wird danach in drei Scheiben geschnitten und das bisher ungefärbte, vorher ischämische Gewebe, wird in einem Puffer mit Triphenyltetrazolium angefärbt. Überlebende Herzmuskelreale färben sich ziegelrot, während totes Gewebe bleich erscheint. […]

[2] = test system: Hunde; experiment: Effect on collateral-dependent residual myocardial perfusion after repeated complete occlusion of the circumflex branch of the left coronary artery (radioactive microspheres); assay type: in vivo; details: relative to third occlusion
Experimental: 2. Wirkung auf die kollateralabhängige Restperfusion des Myokards nach wiederholter vollständiger Okklusion des umschlingenden Astes der linken Koronararterie
Hunde (mischrassig, beiderlei Geschlechts, 20-30 kg Körpergewicht) werden mit Morphin (1 mg/kg s.c.) prämediziert und mit Pentobarbital (i.v. 20 mg/kg Bolus gefolgt von einer Dauerinfusion von 8 mg/kg) narkotisiert. Die Körpertemperatur wird mit einem Heizkissen bei 38°C gehalten. Nach endotrachealer Intubation werden die Tiere mit einem Gemisch von 25 % O₂ und 75 % N₂O beatmet. Der linksventrikuläre Druck wird mit einem Mikrodruckwandler gemessen, während der Aortendruck über einen via A. femoralis vorgeschobenen Katheter erfaßt wird. Nach Thoraxeröffnung im linken 5. Interkostalraum wird der Ramus circumflexus der linken Koronararterie freipärpariert und der Meßkopf eines elektromagnetischen Flowmeters darumgelegt. Zur Injektion von radioaktiven Mikrosphären (regionale Perfusionsmessung) wird der linke Vorhof kanüliert. Die Referenzprobe wird über die linke A. femoralis 2 Minuten lang bei einem Fluß von 6 ml/Minute gezogen. Die Registrierung der hämodynamischen Daten erfolgt auf einem IFD Polygraphen.
Nach einer 30minütigen Äquilibrierungsphase wird der Ramus circumflexus 6 mal im Abstand von jeweils 30 Minuten für 4 Minuten verschlossen. Dabei wird während der 4. Minute eine regionale Perfusionsbestimmung durchgeführt. Die Perfusion des Versorgungsbereiches des Ramus circumflexus ist abhängig von koronaren Kollateralgefäßen. Für die Beurteilung der Kollateralperfusion werden die besonders ischämiegefährdeten subendocardialen Herzmuskelschichten herangezogen. Als Bezugswert vor Substanzgabe dient der jeweilige Flußwert der dritten Okklusion.

[3] = Acute toxicity (LD50), mouse; details: in vivo, Maus
[4] = Acute toxicity (LD50), rat; details: in vivo, iv, Ratte, read-out: LD₅₀ i.v.
[5] = po, read-out: LD₅₀ p.o. (converted)

Structure (SMILES) | % Änderung des Kollateralflusses pro Herzschlag im subendocardialen ischämischen Myocard ([2]; Dosis i.v. 30 µg/kg) | LD50 ([3]; iv, read-out: LD₅₀ i.v.) | LD50 [3, 5] | LD50 [4] | also measured
CC(C)NCC(O)COc1ccc(CC(N)=O)cc1 (stereo not shown) [Atenolol, reference compound] | – | – | – | – | % des ischämischen Myokards infarziert ([1]; Dosis 0,3 mg/kg): 63%
Cc1nc2ccc(C3=NNC(=O)CC3C)cc2[nH]1 (stereo not shown) [C, 2-Methyl-5-(5-methyl-3-oxo-4,5-dihydro-2H-6-pyridazinyl)-benzimidazol] | +178% | – | – | – | % Änderung des Kollateralflusses pro Herzschlag im subendocardialen ischämischen Myocard ([2]; Dosis i.v. 10 µg/kg): +101%
COc1ccc(CCN2CCCC(CN3CCc4cc(OC)c(OC)cc4CC3=O)C2)cc1OC (stereo not shown) [D, 3-[(N-(2-(3,4-Dimethoxyphenyl)-ethyl)-piperidin-3-yl)-methyl]-7,8-dimethoxy-1,3,4,5-tetrahydro-2H-3-benzazepin-2-on] | – | 50 mg/kg | 720 mg/kg | – | –
COc1ccc(-c2nc3ccc(C4=NNC(=O)CC4C)cc3[nH]2)cc1 (stereo not shown) [Verbindung A, 2-(4-Methoxyphenyl)-5-(5-methyl-3-oxo-4,5-dihydro-2H-6-pyridazinyl)-benzimidazol] | +100% | – | 600 mg/kg | 72 mg/kg | % des ischämischen Myokards infarziert ([1]; Dosis 0,5 mg/kg): 34%
CC1CC(=O)NN=C1c1ccc2nc(-c3ccc(O)cc3)[nH]c2c1 (stereo not shown) [Verbindung B, 2-(4-Hydroxyphenyl)-5-(5-methyl-3-oxo-4,5-dihydro-2H-6-pyridazinyl)-benzimidazol] | – | – | – | > 100 mg/kg | % Änderung des Kollateralflusses pro Herzschlag im subendocardialen ischämischen Myocard ([2]; Dosis i.v. 95 µg/kg): +182%
COc1ccc(CCN(C)CCCN2CCc3cc(OC)c(OC)cc3CC2=O)cc1OC [Verbindung E, 1-(7,8-Dimethoxy-1,3,4,5-tetrahydro-2H-3-benzazepin-2-on-3-yl)-3-[N-methyl-N-(2-(3,4-dimethoxyphenyl)-ethyl)-amino]propan] | – | 89 mg/kg | 1350 mg/kg | – | –
